Data taken from patent US20160368943A1, “SUBSTITUTED PURINE COMPOUNDS” (EPIZYME, INC., priority 2013, published 2016).

Assays:
[1] = Liver microsome stability, mouse; format: in vitro ADME
Description: The final incubation volume was 50 μL. Control incubations were included for each species where 0.1 M phosphate buffer pH 7.4 was added instead of NADPH (minus NADPH). Two control compounds were included for each species. […] The control (minus NADPH) was incubated for 45 minutes only. The reactions were stopped by transferring 25 μL of incubate to 50 μL methanol at the appropriate time points. The incubation plates were centrifuged at 2,500 rpm for 20 minutes at 4° C. to aid protein precipitation. Experimental half-lives were transformed to the corresponding intrinsic clearance values and subsequently scaled to predicted in vivo clearance values, using the well-stirred model as previously described (Houston, Biochemical Pharmacology 47(9): 1469-1479, 1994; Obach, Drug Metabolism and Disposition 27(11): 1350-1359, 1999), with appropriate species-specific scaling factors (Barter et al., Current Drug Metabolism 8(1): 33-45, 2007).

[2] = Hepatocyte stability, mouse; format: in vitro ADME, CD-1 mouse
Description: Human, Beagle dog, Sprague-Dawley rat, and CD-1 mouse cryopreserved hepatocytes were obtained from XenoTech and stored at −150° C. until use. The hepatocytes were thawed and prepared according to the vendor's instructions, pooled into Krebs Henseleit buffer (KHB, pH 7.4), and kept on ice prior to initiating an experiment. […] The reaction mixture was incubated in a shaking water bath at 37° C. Aliquots of the incubation solutions were sampled at 0, 15, 30, 60, and 120 minutes. The reaction was immediately terminated by the addition of three volumes of ice-cold acetonitrile containing 0.1% formic acid and internal standards. After centrifugation at 1640×g for 10 minutes, the supernatants were transferred into HPLC vials, and the test compound was analyzed by LC-MS/MS. Positive controls, testosterone (20 μM) and 7-hydroxycoumarin (100 μM), were performed in parallel to confirm the enzyme activities of the hepatocytes used.
Experimental half-lives were transformed to the corresponding intrinsic clearance values and subsequently scaled to predicted in vivo clearance values, using the well-stirred model as previously described (Houston, Biochemical Pharmacology 47(9): 1469-1479, 1994; Obach, Drug Metabolism and Disposition 27(11): 1350-1359, 1999), with appropriate species-specific scaling factors (Barter et al., Current Drug Metabolism 8(1): 33-45, 2007).

[3] = Plasma protein binding by equilibrium dialysis, dog; format: in vitro ADME; conditions: male, beagle, pH 7.4, read-out: Plasma free fraction
Description: Plasma protein binding was assessed by equilibrium dialysis, utilizing the HT-dialysis cell format with a cellulose semi permeable membrane (molecular weight cut off of 5000 Da). Plasma was warmed to 37° C. and adjusted to pH 7.4 before use. Male Sprague-Dawley rat, male Beagle dog, male CD-1 mouse and mixed sex human plasma was used for the studies. A 5 μM test compound solution was prepared in isotonic phosphate buffer and rat, dog, mouse and human plasma (final DMSO concentration of 0.5%). The plasma-containing solution was introduced to one side of the membrane, and the plasma-free on the other. Incubations were performed for 2-16 hours in duplicate in order to allow the compound to reach equilibrium. Haloperidol was included as the control compound for each species. At the end of the equilibration time the cells were emptied. Following protein precipitation, the samples were centrifuged and analyzed by LC-MS/MS. The samples from the protein containing compartment were quantified using calibration standards prepared in plasma and the protein free compartments were quantified using calibration standards prepared in dialysis buffer.

[4] = Plasma stability, dog; format: in vitro ADME; conditions: Beagle, pooled plasma, 37° C., read-out: Half-life in ex vivo blood plasma
Text: Samples were quenched in methanol and analyzed by LC-MS/MS analysis.

[5] = MDCK cell permeability, native cells; format: in vitro ADME; conditions: dog, Basolateral-to-apical
Description: Samples were taken from the donor and receiver chambers at 120 minutes. Each determination was performed in duplicate. Co-dosed lucifer yellow flux was also measured for each monolayer to ensure cell monolayers remained intact during the incubation. All samples were assayed by LC-MS/MS.

[6] = Metabolite profiling in liver microsomes with NADPH and UDPGA, mouse; format: in vitro ADME; conditions: Compound A 10 μM, 20 min
Description: Compound A was incubated with liver microsomes of various species (mouse, rat, dog or human). […] For all liver microsomal incubations, samples were taken at 0 and 20 minutes. All samples were quenched by using acetonitrile/methanol solution and analyzed using an LC-MS/MS Q-Trap system (AB Sciex, Framingham, Mass.).
The corresponding product ion tandem mass spectra of Compound A and its metabolites were obtained by using enhanced product ion (EPI) scans during positive ion electrospray. The possible chemical structures of the metabolites were deduced based on their MS1 and MS2 spectra.

In the case of `CC(C)N(C[C@H]1O[C@@H](n2cnc3c(N)ncnc32)[C@H](O)[C@@H]1O)[C@H]1C[C@@H](CCc2nc3cc(C(C)(C)C)ccc3[nH]2)C1` [Compound A, (2R,3R,4S,5R)-2-(6-amino-9H-purin-9-yl)-5-((((1r,3S)-3-(2-(5-(tert-butyl)-1H-benzo[d]imidazol-2-yl)ethyl)cyclobutyl)(isopropyl)amino)methyl)tetrahydrofuran-3,4-diol], the microsomal CLint at 3 μM ([1]; liver microsomes, pH 7.4, NADPH, 3 μM) is reported as 150 µL/min/mg, the “Scaled Hepatic CL from liver microsomes” value ([1]; well-stirred model) is reported as 78 mL/min/kg and the hepatocyte CLint at 3 μM ([2]; CD-1, mouse, cryopreserved hepatocytes in suspension, pH 7.4, mouse, 3 μM) is reported as < 4 µL/min/1e6 cells. The “Scaled Hepatic CL from hepatocytes” value ([2]; mouse) was 26 mL/min/kg, the “Hepatocyte CLint” value ([2]; mouse, 3 μM) was 3.5 uL/min/million cells and the fraction unbound at 5 μM [3] was 0.234. For the same molecule, the half-life at 1 μM [4] was > 2 h, the Papp B→A at 120 min, 10 uM [5] was 0.3 ×10⁻⁶ cm/s and the “Abundance based on UV spectra” value [6] was 25.4%.
